From patent publication US10273267B2, “Beta-hairpin peptidomimetics as selective elastase inhibitors” (POLYPHOR AG, priority 2013, dated 2019)
Where a SMILES comes first, the peptide text is derived from it. [ ]: non-standard residue; d: D form. Oic = O=C(O)[C@@H]1C[C@@H]2CCCC[C@@H]2N1; Gly(octyl) = CCCCCCCC[C@H](N)C(=O)O; hTyr = N[C@@H](CCc1ccc(O)cc1)C(=O)O; Dab = NCC[C@H](N)C(=O)O; Dap = NC[C@H](N)C(=O)O

Tests used:
Assay type in all cases: biochemical
[1] = target: T1, porcine pancreatic elastase (Sus scrofa, UniProt P00772); assay: Inhibition of porcine pancreatic elastase (hydrolysis of MeOSuc-AAA-pNA); conditions: for hNE/PPE selectivity: ratio of PPE IC50 to hNE IC50; for IC50: substrate MeOSuc-AAA-pNA 1 mM, enzyme 15 nM, 37° C., pH8, read-out: Porcine pancreatic elastase (PPE) IC50
T1 construct: purchased Sigma, USA
T1 sequence (P00772 27-266): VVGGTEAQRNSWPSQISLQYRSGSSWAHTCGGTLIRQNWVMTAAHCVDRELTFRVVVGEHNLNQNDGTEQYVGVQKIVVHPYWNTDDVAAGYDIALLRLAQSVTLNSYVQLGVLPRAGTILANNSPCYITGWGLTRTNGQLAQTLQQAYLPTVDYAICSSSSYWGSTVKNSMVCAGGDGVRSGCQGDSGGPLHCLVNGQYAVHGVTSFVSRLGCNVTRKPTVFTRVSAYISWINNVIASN
Method: 2.3 Inhibition of Porcine Pancreatic Elastase
The ability of the peptides of the invention to inhibit the hydrolysis activity of porcine pancreatic elastase (Sigma, USA) using the synthetic tripeptidic substrate MeOSuc-AAA-pNA (Bachem, Switzerland) was determined as follows:
(§1) The above substrate (1 mM) and […] porcine pancreatic elastase (15 nM) were incubated at 37° C. with serial dilutions of the peptides (0.5% DMSO final) in assay buffer (50 mM Tris, pH8, 100 mM NaCl, 0.01% Tween20). The release of pNA was followed by monitoring the change in absorbance at 405 nm for 30 minutes. Control assays with the same assay set-up as above, but without peptide, ran linearly. The dose-response data were fitted to the 4-parameter Hill equation providing the IC50 value using Graphpad (Prism 5).

human proteinase 3 = target: T2, human proteinase 3 (Homo sapiens, UniProt P24158); assay: Inhibition of human proteinase 3 (substrate Boc-Ala-Ala-Nva-SBzl); conditions: for hNE/hPr3 selectivity: ratio of hPr3 IC50 to hNE IC50; for IC50: substrate Boc-Ala-Ala-Nva-SBzl 1 mM, enzyme 10 nM, 37° C., pH7.4, read-out: Human proteinase 3 (hPr3) IC50
T2 construct: purchased Elastin Products Company, USA
T2 sequence (P24158 28-248): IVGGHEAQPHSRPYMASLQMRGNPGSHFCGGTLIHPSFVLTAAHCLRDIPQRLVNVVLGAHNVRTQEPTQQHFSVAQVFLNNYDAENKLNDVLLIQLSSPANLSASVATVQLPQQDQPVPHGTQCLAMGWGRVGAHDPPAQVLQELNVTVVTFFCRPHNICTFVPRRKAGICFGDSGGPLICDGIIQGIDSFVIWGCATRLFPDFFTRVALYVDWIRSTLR
Method: 2.4 Inhibition of Human Proteinase 3
The inactivation of human proteinase 3 (Elastin Products Company, USA) by the peptides of the invention using synthetic tripeptidic substrate Boc-Ala-Ala-Nva-SBzl (Elastin Products Company, USA) was determined as follows:
as §1, with “mM), 4,4′-dithiodipyridine (250 μM)” for “mM)”, “proteinase 3 (10” for “porcine pancreatic elastase (15”, “pH7.4, 150” for “pH8, 100”, “reaction process” for “release of pNA”, “340” for “405”

[2] = target: T3, human neutrophil elastase (Homo sapiens, UniProt P08246); assay: Inhibition of human neutrophil elastase (hydrolysis of MeOSuc-AAPV-pNA); conditions: substrate MeOSuc-AAPV-pNA 0.3 mM, enzyme 10 nM, 37° C., pH 8; read-out: Human neutrophil elastase (hNE) IC50
T3 construct: purchased Serva Electrophoresis, Germany
T3 sequence (P08246 30-267): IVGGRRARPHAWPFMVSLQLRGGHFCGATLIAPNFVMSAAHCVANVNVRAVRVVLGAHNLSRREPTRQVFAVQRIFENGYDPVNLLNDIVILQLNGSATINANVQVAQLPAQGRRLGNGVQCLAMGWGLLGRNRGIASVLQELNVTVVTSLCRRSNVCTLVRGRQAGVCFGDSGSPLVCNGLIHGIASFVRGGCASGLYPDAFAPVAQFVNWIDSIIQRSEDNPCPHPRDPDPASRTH
Method: 2.2 Inhibition of Human Neutrophil Elastase
The ability of the peptides of the invention to inhibit the hydrolysis activity of human neutrophil elastase (Serva Electrophoresis, Germany) using the synthetic tetrapeptidic substrate MeOSuc-AAPV-pNA (Bachem, Switzerland) was determined as follows:
as §1, with “(0.3” for “(1”, “neutrophil” for “porcine pancreatic”, “(10” for “(15”, “(1%” for “(0.5%”, “pH 8, 300” for “pH8, 100”

| Compound | hNE/PPE selectivity [1] | IC50 [1] [µM] | hNE/hPr3 selectivity (human proteinase 3) | IC50 (human proteinase 3) [µM] | IC50 [2] [µM] |
| --- | --- | --- | --- | --- | --- |
| CCCCCCCC[C@@H]1NC(=O)[C@H]2CCCN2C(=O)[C@H]2CCCN2C(=O)[C@H]([C@@H](C)O)NC(=O)[C@H](CCCCN)NC(=O)[C@H](CCC(N)=O)NC(=O)[C@@H]2CCCN2C(=O)[C@@H]2CCCN2C(=O)[C@H]([C@@H](C)CC)NC(=O)[C@H](CO)NC(=O)[C@H](C)NC(=O)[C@H]([C@@H](C)O)NC(=O)[C@H](CCC(=O)O)NC1=O [Example 12, Cyclo(-OctGly-Glu-Thr-Ala-Ser-Ile-Pro-Pro-GI n-Lys-Thr-^DPro-^DPro-)] (cyclo([Gly(octyl)]ETASIPPQKT[dP][dP])) | >6579 | > 100 | >6579 | > 100 | 0.0152 |
| CC[C@H](C)[C@@H]1NC(=O)[C@H](CO)NC(=O)[C@H](C)NC(=O)[C@H]([C@@H](C)O)NC(=O)[C@H](CCC(=O)O)NC(=O)[C@H](CCNC(=O)[C@@H](N)Cc2ccccc2)NC(=O)[C@@H]2CCCN2C(=O)[C@H]2CCCN2C(=O)[C@H](Cc2ccc(O)cc2)NC(=O)[C@H](CCCCN)NC(=O)[C@H](CCC(N)=O)NC(=O)[C@@H]2CCCN2C(=O)[C@@H]2CCCN2C1=O [Example 9, Cyclo(-Dab(Phe)-Glu-Thr-Ala-Ser-Ile-Pro-Pro-Gln-Lys-Tyr-^DPro-Pro-)] (cyclo([Dab](Phe)ETASIPPQKY[dP]P)) | 215 | 3.72 | 711 | 12.3 | 0.0173 |
| CCCCCCCC[C@@H]1NC(=O)[C@H](Cc2ccc(O)cc2)NC(=O)[C@@H](Cc2ccc(O)cc2)NC(=O)[C@H]([C@@H](C)O)NC(=O)[C@H](CCCCN)NC(=O)[C@H](CCC(N)=O)NC(=O)[C@@H]2CCCN2C(=O)[C@@H]2CCCN2C(=O)[C@H]([C@@H](C)CC)NC(=O)[C@H](CO)NC(=O)[C@H](C)NC(=O)[C@H]([C@@H](C)O)NC(=O)[C@H](CCC(=O)O)NC1=O [Example 24, Cyclo(-OctGly-Glu-Thr-Ala-Ser-Ile-Pro-Pro-Gln-Lys-Thr-^DTyr-Tyr-)] (cyclo([Gly(octyl)]ETASIPPQKT[dY]Y)) | 1112 | 12.9 | 664 | 7.7 | 0.0116 |
| CCCCCCCC[C@@H]1NC(=O)[C@@H](CCC(=O)O)NC(=O)[C@H]2CCCN2C(=O)[C@H]([C@@H](C)O)NC(=O)[C@H](CCCCN)NC(=O)[C@H](CCC(N)=O)NC(=O)[C@@H]2CCCN2C(=O)[C@@H]2CCCN2C(=O)[C@H]([C@@H](C)CC)NC(=O)[C@H](CO)NC(=O)[C@H](C)NC(=O)[C@H]([C@@H](C)O)NC(=O)[C@H](CCC(=O)O)NC1=O [Example 40, Cyclo(-OctGly-Glu-Thr-Ala-Ser-Ile-Pro-Pro-Gln-Lys-Thr-^DPro-^DGlu-)] (cyclo([Gly(octyl)]ETASIPPQKT[dP][dE])) | >76923 | > 100 | >76923 | > 100 | 0.0013 |
| CC[C@H](C)[C@@H]1NC(=O)[C@H](CO)NC(=O)[C@H](C)NC(=O)[C@H]([C@@H](C)O)NC(=O)[C@H](CCc2ccc(O)cc2)NC(=O)[C@H](CCCNC(=N)N)NC(=O)[C@@H]2CCCN2C(=O)[C@H]2CCCN2C(=O)[C@H]([C@@H](C)O)NC(=O)[C@H](CCCCN)NC(=O)[C@H](CCC(N)=O)NC(=O)[C@@H]2C[C@@H]3CCCC[C@@H]3N2C(=O)[C@@H]2CCCN2C1=O [Example 42] (cyclo(R[hTyr]TASIP[Oic]QKT[dP]P)) | >20833 | > 100 | >20833 | > 100 | 0.0048 |
| CCCCCCCC[C@@H]1NC(=O)[C@H](C(C)C)NC(=O)[C@@H](Cc2ccc(O)cc2)NC(=O)[C@H]([C@@H](C)O)NC(=O)[C@H](CCCCN)NC(=O)[C@H](CCC(N)=O)NC(=O)[C@@H]2CCCN2C(=O)[C@@H]2CCCN2C(=O)[C@H]([C@@H](C)CC)NC(=O)[C@H](CO)NC(=O)[C@H](C)NC(=O)[C@H]([C@@H](C)O)NC(=O)[C@H](CCC(=O)O)NC1=O [Example 23, Cyclo(-OctGly-Glu-Thr-Ala-Ser-Ile-Pro-Pro-Gln-Lys-Thr-^DTyr-Val-)] (cyclo([Gly(octyl)]ETASIPPQKT[dY]V)) | 1717 | 10.3 | 1717 | 10.3 | 0.006 |
| CCCCCCCC[C@@H]1NC(=O)[C@H](C)NC(=O)[C@@H](C)NC(=O)[C@H]([C@@H](C)O)NC(=O)[C@H](CCCCN)NC(=O)[C@H](CCC(N)=O)NC(=O)[C@@H]2CCCN2C(=O)[C@@H]2CCCN2C(=O)[C@H]([C@@H](C)CC)NC(=O)[C@H](CO)NC(=O)[C@H](C)NC(=O)[C@H]([C@@H](C)O)NC(=O)[C@H](CCC(=O)O)NC1=O [Example 20, Cyclo(-OctGly-Glu-Thr-Ala-Ser-Ile-Pro-Pro-GI n-Lys-Thr-^DAla-Ala-)] (cyclo([Gly(octyl)]ETASIPPQKT[dA]A)) | 2128 | 28.3 | 669 | 8.9 | 0.0133 |
| CCCCCCCC[C@@H]1NC(=O)[C@@H]2CCCN2C(=O)[C@H]2CCCN2C(=O)[C@H](Cc2ccc(O)cc2)NC(=O)[C@H](CCCCN)NC(=O)[C@H](CCC(N)=O)NC(=O)[C@@H]2CCCN2C(=O)[C@@H]2CCCN2C(=O)[C@H]([C@@H](C)CC)NC(=O)[C@H](CO)NC(=O)[C@H](C)NC(=O)[C@H]([C@@H](C)O)NC(=O)[C@H](CNC(=O)[C@@H](N)Cc2ccccc2)NC1=O [Example 14, Cyclo(-OctGly-Dap(Phe)-Thr-Ala-Ser-Ile-Pro-Pro-Gln-Lys-Tyr-^DPro-Pro-)] (cyclo([Gly(octyl)][Dap](Phe)TASIPPQKY[dP]P)) | 367 | 5.5 | 1733 | 26 | 0.015 |
| CC[C@H](C)[C@@H]1NC(=O)[C@H](CO)NC(=O)[C@H](C)NC(=O)[C@H]([C@@H](C)O)NC(=O)[C@H](CCc2ccc(O)cc2)NC(=O)[C@H](CCCNC(=N)N)NC(=O)[C@H](CCC(=O)O)NC(=O)[C@H]2CCCN2C(=O)[C@H]([C@@H](C)O)NC(=O)[C@H](CCCCN)NC(=O)[C@H](CCC(N)=O)NC(=O)[C@@H]2CCCN2C(=O)[C@@H]2CCCN2C1=O [Example 49] (cyclo(R[hTyr]TASIPPQKT[dP]E)) | 2490 | 38.1 | 627 | 9.6 | 0.0153 |
| CCCCCCCC[C@@H]1NC(=O)[C@H](CCCCN)NC(=O)[C@@H](C(C)C)NC(=O)[C@H]([C@@H](C)O)NC(=O)[C@H](CCCCN)NC(=O)[C@H](CCC(N)=O)NC(=O)[C@@H]2CCCN2C(=O)[C@@H]2CCCN2C(=O)[C@H]([C@@H](C)CC)NC(=O)[C@H](CO)NC(=O)[C@H](C)NC(=O)[C@H]([C@@H](C)O)NC(=O)[C@H](CCC(=O)O)NC1=O [Example 22, Cyclo(-OctGly-Glu-Thr-Ala-Ser-Ile-Pro-Pro-Gln-Lys-Thr-^DVal-Lys-)] (cyclo([Gly(octyl)]ETASIPPQKT[dV]K)) | 4847 | 60.1 | 5677 | 70.4 | 0.0124 |
